Assay results as given in patent US20090215841A1, “D2 Receptor Ligand-078” (ASTRAZENECA AB, priority 2008, published 2009).

Legend:
[1] = target: D2s receptor (membranes from D2s stably-transfected CHO cells) (Homo sapiens, UniProt P14416); test: GTPγS assay, block of dopamine-stimulated [35S]-GTPγS binding
Experimental: GTPγS assay was performed substantially as described by Lazareno. […] Antagonist activity of compounds was determined by the ability of test compounds to block dopamine-stimulated [^35S]-GTPγS binding to cell membranes from D2s stably-transfected CHO cells.

D2S receptor = D2S receptor (Homo sapiens, UniProt P14416); test: D2 receptor binding assay ([3H]-raclopride displacement)
Experimental: The ability of test compounds to displace ^3H-raclopride at the D2S receptor was determined on membranes from D2s-transfected CHO cells (Bmax 13 pmol/mg protein). An assay uses a standard 96-well glass fiber filter plate to retain radioligand bound by the receptor. Retained ^3H is determined in a TopCount scintillation plate counter following the addition of a liquid scintillant to each well. Compounds are evaluated for their potency using competition curve analysis, resulting in calculated Ki values.

Sprague Dawley rats = test: Catalepsy assay, rats; format: in vivo, rat
Experimental: (§1) CF-1 male mice or Sprague Dawley rats are dosed (via i.p., p.o. or s.c. route) with a test compound at given concentrations or a vehicle. […] The length of time (in seconds) during which each mouse maintains the initial forepaw bar position is recorded (cataleptic pose). Maximum cut-off observation time is 60 seconds. Results are expressed as means (in sec) for each dose group.

CF-1 male mice = test: Catalepsy assay, mice; format: in vivo, mouse
Experimental: as §1

Male Long-Evans rats = test: Conditioned Avoidance Responding (CAR) assay; format: in vivo, rat; details: for motor impairment in CAR (shock escapes): dose not stated; for efficacy in CAR (shock avoidance): rats, dosed 60 min prior to testing
Experimental: Male Long-Evans rats were trained to traverse to the opposite side of a standard shuttle cage following presentation of an auditory and visual stimulus in order to avoid delivery of electric shock to the floor of the cage. Daily sessions consisted of up to 80 trials. If shock was delivered, animals always had the opportunity to escape the shock by traversing to the opposite side of the cage. Drug was administered (via s.c. or p.o. route) 60 min prior to testing and the percentage of trials in which shock was avoided and escaped was recorded.

[2] = system: rat plasma prolactin levels; test: Prolactin assay (plasma prolactin by ELISA); format: in vivo; details: male Sprague Dawley rats, s.c., one-hour post dose
Description: As discussed above, hyperprolactinemia is a side effect that can be observed following administration of D2 antagonists. In contrast, administration of D2 agonists to human subjects results in large reductions in prolactin levels in blood (hypoprolactinemia).
Male Sprague Dawley rats were subcutaneously administered with vehicle or test compounds. Trunk blood was collected one-hour post dose and plasma evaluated by an ELISA assay to determine prolactin levels.

[3] = system: D-amphetamine hyperlocomotion in habituated rats; test: D-amphetamine-induced hyperlocomotor activity (LMA) in habituated rat model; details: in vivo, sc, 1 mg/kg
Experimental: LMA was assessed in male Long Evans rats using a paradigm that included a habituation phase followed by administration of 1 mg/kg D-amphetamine. Animals were allowed to acclimatize to the testing room for 1 hour before being weighed and placed into activity chambers. Thirty minutes after LMA measurements began, animals were briefly removed, subcutaneously dosed with vehicle or test drug at different doses (μmol/kg), and returned to the chambers. After 30 minutes, animals were again removed and dosed with vehicle or D-amphetamine at 1 mg/kg (s.c.). After returning animals to the activity chambers, LMA was assessed for 60 minutes. […] Statistical analysis was made of total distance traveled after D-amphetamine administration using ANOVA and Tukey's post hoc analysis where appropriate. All values are expressed as Mean and SD.

D2s receptor (membranes from D2s stably-transfected CHO cells), sequence (P14416 1-414 isoform P14416-2): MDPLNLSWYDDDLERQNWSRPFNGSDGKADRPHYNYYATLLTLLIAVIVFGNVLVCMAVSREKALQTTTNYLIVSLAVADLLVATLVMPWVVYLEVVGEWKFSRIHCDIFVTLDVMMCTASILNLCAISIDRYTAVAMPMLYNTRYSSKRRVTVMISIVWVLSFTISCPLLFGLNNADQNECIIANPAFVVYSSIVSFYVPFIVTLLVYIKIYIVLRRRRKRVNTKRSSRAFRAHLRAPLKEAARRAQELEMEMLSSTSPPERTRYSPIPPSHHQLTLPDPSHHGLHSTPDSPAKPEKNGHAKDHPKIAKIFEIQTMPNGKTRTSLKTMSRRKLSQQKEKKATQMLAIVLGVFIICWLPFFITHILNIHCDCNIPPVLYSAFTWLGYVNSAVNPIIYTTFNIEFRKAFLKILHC
D2S receptor, sequence (P14416 1-414 isoform P14416-2): as above

| SMILES | IC50 [1] [nM] | Ki (D2S receptor) [nM] | catalepsy (Sprague Dawley rats) | catalepsy (CF-1 male mice; positive control) | motor impairment in CAR (shock escapes) (Male Long-Evans rats) | efficacy in CAR (shock avoidance) (Male Long-Evans rats) | no observable effect level (NOEL) on plasma prolactin [2] [µmol/kg] | MED, reversal of LMA [3] [µmol/kg] | catalepsy (CF-1 male mice; 30 μmol/kg) |
| --- | --- | --- | --- | --- | --- | --- | --- | --- | --- |
| CN[C@@H]1Cc2cc3nc(N)sc3cc2C1 | 417 | 151 | – | – | – | – | – | – | – |
| O=C(CCCN1CCC(O)(c2ccc(Cl)cc2)CC1)c1ccc(F)cc1 [Haloperidol] | – | – | induced catalepsy | induced catalepsy | exhibited motor impairment | effective | – | – | – |
| Cc1nc2n(c(=O)c1CCN1CCC(c3noc4cc(F)ccc34)CC1)CCCC2 [Risperidone] | – | – | – | – | – | – | 0.07 | – | – |
| CCN(CC)[C@@H]1Cc2cc3nc(N)sc3cc2C1 | 74.1 | 21.9 | – | – | – | – | – | – | – |
| O=C1CCc2ccc(OCCCCN3CCN(c4cccc(Cl)c4Cl)CC3)cc2N1 [Aripiprazole] | – | – | – | – | exhibited motor impairment | effective | 2.2 | – | – |
| CCCN[C@@H]1Cc2cc3nc(N)sc3cc2C1 [Compound C3] | 437 | 115 | – | – | exhibited motor impairment | effective | 10 | 10 | exhibited catalepsy |
